We go through 10 compounds from PubChem BioAssay (NCI).

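Dose response: 5 concentrations. Exposure: 48 h. Format: 96-well plates. Endpoint: linear interpolation; highest concentration if not reached. GI50 marks 50% less growth. At the TGI there is no net growth.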

Holding throughout (experiment): growth of human tumour cells (NCI), 48 h
The test system of assay [1] is SK-MEL-28 melanoma.
The subject of assay [2] is U251 CNS.
Assay [3] relates to ACHN renal.
For assay [4], the system named is OVCAR-3 ovarian.
Assay [5] deals with T-47D breast.
Assay [6] concerns M14 melanoma.
For assay [7], the system named is SW-620 colon.
Assay [8] concerns MDA-MB-231 breast.
Assay [9] has as its system CAKI-1 renal.
The subject of assay [10] is SR leukemia.

Consider `O=C(Cc1ccccc1)NN1C(=O)/C(=C\c2ccccc2O)SC1=Nc1ccccc1`, for which the TGI in assay [1], in assay [2], in assay [3], in assay [4], in [5] and in [6] was over 100 µM each time. In addition, the TGI in assay [7] and in assay [8] was over 100 µM in each case.

Take `COc1ccc(-c2nc(C(=O)c3ccccc3)n(CC(=O)c3ccc(Cl)cc3)c2-c2ccc(OC)cc2)cc1`: the GI50 in assay [1], in [2], in assay [3], in assay [4], in [5] and in [6] was over 100 µM in each case. The GI50 in assay [7], in assay [9] and in assay [8] was over 100 µM in each case. For the same compound, the TGI in assay [1], in assay [2], in assay [3], in assay [4], in assay [5] and in assay [6] was over 100 µM throughout. Also, the TGI in assay [7], in assay [9] and in assay [8] was over 100 µM each time.

For the compound `Oc1ccc(Cl)cc1/C=N\NC(=S)N/N=C/c1cc(Cl)ccc1O`, the GI50 is 4.58 µM in assay [1]; 1.08 µM in assay [2]; 2.35 µM in assay [3]; 1.87 µM in [4]; 2.73 µM in assay [5]; 1.22 µM in [10]. The figures for the GI50 in [7], in assay [9] and in [8] were 4.41 µM, 1.24 µM and 1.84 µM, respectively. Also, the TGI is over 100 µM in [1]; over 100 µM in assay [2]; over 100 µM in [3]; 11.7 µM in assay [4]; 73.4 µM in assay [5]; 40.9 µM in assay [10]. Also, the TGI in [7] was over 100 µM; in assay [9] it was 8.48 µM; in assay [8] it was 27.6 µM.

Regarding `COc1cccc2c1cc1c3c(cc4c(c32)OCO4)C(=O)N1`, the GI50 in [1] was 13.1 µM; in assay [2] it was 5.78 µM; in assay [3] it was 3.76 µM; in [4], 2.5 µM; in assay [5] it was 2.33 µM; in assay [6] it was 12.1 µM. Further, the GI50 is 4.4 µM in [7], 22.4 µM in assay [9] and 7.9 µM in assay [8]. Further, the TGI is 67.2 µM in assay [1]; 21.1 µM in assay [2]; 15.4 µM in assay [3]; 5.58 µM in assay [4]; 6.81 µM in assay [5]; over 100 µM in [6]. The values for the TGI in assay [7], in [9] and in assay [8] were over 100 µM, over 100 µM and 47.2 µM, respectively.

Consider `COc1ccc(C(=O)c2cc3c(N)c(C(=O)Nc4cccc(OC)c4)sc3nc2C)cc1`, for which the GI50 in assay [1] is over 100 µM; in assay [2], 0.55 µM; in assay [3], 0.853 µM; in [5] it was 4.7 µM; in assay [10], 0.203 µM; in assay [6], 0.341 µM. Also, the GI50 is 0.446 µM in assay [7], 0.694 µM in assay [9] and 1.47 µM in assay [8]. Further, the TGI in assay [1], in assay [2], in [3], in assay [5], in assay [6] and in assay [7] was over 100 µM throughout. For the same compound, the TGI in assay [9] and in assay [8] was over 100 µM in each case.

Consider `O=C(Nc1nc2ccccc2s1)c1cc(-c2ccc(F)cc2)n2nc(-c3ccccc3)cc2n1`, for which the GI50 in assay [5] is 3.34 µM; in assay [10], 3.93 µM; in assay [6], 3.13 µM; in assay [8] it was 2.36 µM. The TGI in [5] is over 100 µM; in [10], 12.8 µM; in [6], over 100 µM; in assay [8], 5.61 µM.

With `Cc1ccc(S(=NS(=O)(=O)c2ccc(C)cc2)c2ccc(C)cc2)cc1`, the TGI in [1], in assay [2], in assay [3], in assay [4], in assay [5] and in assay [10] was over 100 µM in each case. In addition, the TGI in [6] and in assay [7] was over 100 µM in each case.

In the case of `O=C(/C=C/c1ccccc1)CCC1C(=O)NC(=S)NC1=O`, the TGI in assay [1], in assay [2], in [3], in [4], in assay [5] and in assay [6] was over 100 µM each time. The TGI in assay [7], in assay [9] and in assay [8] was over 100 µM in each case.

On to `CN=C(N)N/N=C(\C)c1ccc2c(c1)Cc1ccccc1-2`, for which the GI50 in assay [1] was 2.22 µM; in assay [3], 1.78 µM; in assay [5], 1.32 µM; in assay [6], 1.65 µM; in assay [7] it was 1.43 µM; in assay [9] it was 2.5 µM. The GI50 in [8] was 1.78 µM. Besides, the TGI in assay [1] was 4.63 µM; in assay [3], 3.61 µM; in assay [5], 2.92 µM; in assay [6] it was 3.02 µM; in [7] it was 3.29 µM; in assay [9], 8.82 µM. The compound further registered a TGI in assay [8] of 4.31 µM.

`COc1ccc2c(c1)/C(=N/OC(C)=O)c1c-2cnc2ccccc12`: the GI50 was 31.6 µM in assay [1]; 19.3 µM in [2]; 20.4 µM in assay [3]; 19.9 µM in assay [5]; 13.8 µM in assay [10]; 29.6 µM in assay [6]. In addition, the GI50 in assay [7] was 67.1 µM; in assay [8], 22.1 µM. Also, the TGI in assay [1] was 77.2 µM; in assay [2] it was 39.4 µM; in assay [3], 45.4 µM; in [5] it was 66.3 µM; in assay [10], 38 µM; in [6], over 100 µM. Moreover, the TGI in [7] is over 100 µM; in assay [8], 59.4 µM.
